Reference: publication PMC11530593, “Structural mechanism of human HCN1 hyperpolarization-activated channel inhibition by ivabradine” (The Journal of Biological Chemistry, 2024)
Where a chain is given by its changes, count along the chain named.

Assays:
[1] = target: T1, HCN1 mutant F285A (Homo sapiens, UniProt O60741, F285A); test: Whole-cell patch-clamp, Ih inhibition, HCN1 mutant; format: cell-based; details: electrophysiological recordings, read-out: IC50 (Fig. 2F)
T1 construct: Full-length WT or mutant human HCN1 were cloned into the pcDNA3.1 vector; expressed in transfected cells; host or cells: HeLa cells, pcDNA3.1 vector, transient lipofection
T1 sequence (O60741 1-890 F285A): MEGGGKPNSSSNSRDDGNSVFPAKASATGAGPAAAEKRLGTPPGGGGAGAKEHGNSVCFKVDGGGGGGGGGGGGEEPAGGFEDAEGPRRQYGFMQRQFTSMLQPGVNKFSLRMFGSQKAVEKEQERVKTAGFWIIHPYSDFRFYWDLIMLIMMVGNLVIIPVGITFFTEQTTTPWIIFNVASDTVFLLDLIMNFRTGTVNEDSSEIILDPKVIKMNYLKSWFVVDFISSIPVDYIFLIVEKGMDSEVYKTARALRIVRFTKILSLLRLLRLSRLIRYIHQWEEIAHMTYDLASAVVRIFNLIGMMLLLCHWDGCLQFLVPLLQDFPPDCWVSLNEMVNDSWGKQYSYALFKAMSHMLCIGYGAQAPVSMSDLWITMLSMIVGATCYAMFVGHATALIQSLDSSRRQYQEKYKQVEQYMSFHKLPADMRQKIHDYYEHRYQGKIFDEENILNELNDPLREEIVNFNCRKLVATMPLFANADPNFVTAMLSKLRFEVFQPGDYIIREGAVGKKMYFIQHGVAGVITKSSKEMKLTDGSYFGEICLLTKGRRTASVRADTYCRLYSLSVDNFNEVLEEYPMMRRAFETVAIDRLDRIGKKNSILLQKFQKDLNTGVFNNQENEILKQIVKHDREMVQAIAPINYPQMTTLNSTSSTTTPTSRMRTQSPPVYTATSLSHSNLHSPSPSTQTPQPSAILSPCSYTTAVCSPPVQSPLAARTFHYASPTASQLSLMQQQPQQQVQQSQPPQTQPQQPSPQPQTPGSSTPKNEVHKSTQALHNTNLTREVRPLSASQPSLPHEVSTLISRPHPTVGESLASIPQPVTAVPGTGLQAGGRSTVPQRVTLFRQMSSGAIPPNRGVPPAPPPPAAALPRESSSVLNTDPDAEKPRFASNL
Procedure: (§1) To elucidate the contribution of these residues to the inhibitory effect of ivabradine, we introduced mutations in ivabradine-interacting residues, converting them into alanines (Fig. 2F).
(§2) Full-length WT or mutant human HCN1 were cloned into the pcDNA3.1 vector for electrophysiological experiments. HeLa cells (from Thermo Fisher Scientific) cultured in Dulbecco's modified Eagle's medium (from Solarbio Life Science) + 10% fetal bovine serum (from ExCell Bio) at 37 °C were transiently transfected using lipofection, and whole-cell patch-clamp recordings were obtained using the Axon 200B amplifier (Molecular Devices) and clampex software (https://www.moleculardevices.com/products/axon-patch-clamp-system/acquisition-and-analysis-software/pclamp-software-suite), 36 to 48 h posttransfection. The extracellular solution contained 110 mM NaCl, 0.5 mM MgCl2, 1.8 mM CaCl2, 5 mM Hepes, 30 mM KCl, and pH was adjusted to 7.4 with NaOH, while the pipette solution contained 130 mM KCl, 10 mM NaCl, 0.5 mM MgCl2, 1 mM EGTA, 5 mM Hepes, and pH was adjusted to 7.4 with KOH. The recordings were performed at room temperature, voltage-clamp mode, and filtered at 1 kHz. The sampling frequency was 10 kHz, and the series resistance was limited to 5 MΩ. To elicit channel currents, step pulses of 3 s duration ranging from −180 mV to −30 mV were applied, followed by a step to −180 mV lasting 1.25 s. The tail currents evoked by the second step were used to determine the voltage-dependent activation curves and calculate the midpoint of activation potential (V1/2). The half maximal inhibitory concentration (IC50) of drugs was determined by recording currents at a pulse of −140 mV and analyzing current amplitudes at varying drug concentrations. The IC50 value was calculated using the Hill equation.

[2] = target: T2, HCN1 mutant W281A (Homo sapiens, UniProt O60741, W281A); test: Whole-cell patch-clamp, Ih inhibition, HCN1 mutant; format: cell-based; details: electrophysiological recordings, read-out: IC50 (Fig. 2F)
T2 construct: Full-length WT or mutant human HCN1 were cloned into the pcDNA3.1 vector; expressed in transfected cells; host or cells: HeLa cells, pcDNA3.1 vector, transient lipofection
T2 sequence (O60741 1-890 W281A): T1 sequence (O60741 1-890 F285A) with W281A, A285F
Procedure: as §1, §2

[3] = parameters: method as in PMID 16936474; details: cited from earlier work

IC50 [1]: 13.4 µM
IC50 [2]: 17.4 µM
SMILES: COc1cc2c(cc1OC)CC(=O)N(CCCN(C)C[C@H]1Cc3cc(OC)c(OC)cc31)CC2 [ivabradine]
ability to penetrate the blood-brain barrier [3]: poor
